Marks after values point to notes of the source that are not given here.
Experiments:
normal individual plasma = experiment: Coagulation kinetic analyses and COHF assay (TTG increase after CORM-2); type: biochemical, human; conditions: CORM-2 100 μM; based on individual, not group mean responses
Protocol: Plasma was rapidly thawed at 37° C. on the day of experimentation. The final volume for all subsequently described plasma sample mixtures was 359.4 μl. […] Plasma sample mixtures were placed in a disposable cup in a computer-controlled thrombelastograph® hemostasis system (Model 5000, Haemoscope Corp., Niles, Ill., USA), with addition of CaCl2 as the last step to initiate clotting. Data were collected at 37° C. for 15 min. The following elastic modulus-based parameters previously described (Benk et al., Eur J Cardio-Thorac Surg 44:551-558 (2013); Owens Clin Biochem 43:1183-1188 (2010); Balla et al., Antioxid Redox Signal 9:2119-2137 (2007); Nielsen et al., Blood Coagul Fibrinolysis 20:377-380 (2009); Nielsen et al., Blood Coagul Fibrinolysis 22:443-447 (2011); Nielsen et al., Blood Coagul Fibrinolysis 22:756-759 (2011); Nielsen et al., Blood Coagul Fibrinolysis 24:405-410 (2013)) were determined: time to maximum rate of thrombus generation (TMRTG): this is the time interval (min) observed prior to maximum speed of clot growth; maximum rate of thrombus generation (MRTG): this is the maximum velocity of clot growth observed (dynes/cm^2/sec); and total thrombus generation (TTG, dynes/cm^2), the final viscoelastic resistance observed after clot formation. […]

[1] = test system: fibrin fiber network of healthy platelet rich plasma (PRP); conditions: PRP exposed to compound, then thrombin; SEM
Protocol: SEM-Based Analyses. […] Blood was obtained from three healthy, female subjects after written, informed consent was obtained. […] Their plasma ferritin (range 2.6-3.3 g/L), serum ferritin (range 13-28 ng/ml) and iron saturation of ferritin (range 19-33%) were normal. As noted previously, forty ml of whole blood was obtained, anticoagulated (sodium citrate, 9 parts blood to 1 part 0.105M sodium citrate), and platelet rich plasma (PRP) was generated by centrifugation of blood at 1250×g for 2 min (Nielsen et al., Blood Coagul Fibrinolysis 25:695-702 (2014); Nielsen et al., Blood Coagul Fibrinolysis 25:845-50 (2014)). […]
The cover slips were placed in 0.075 M PBS on a shaker and washed for 20 minutes. […] Once the samples had been coated they were analyzed with a scanning electron microscope (Zeiss ULTRA plus FEG SEM, Carl Zeiss Microscopy GmbH, Jena, Germany).
After visualization of the fibrin networks with SEM, micrographs were obtained at 40,000 times machine magnification. […] One fiber was randomly selected out of every block of the grid, ensuring that fiber measurements were not duplicated, and that fibers were systematically assessed to prevent observer bias (Pretorius Ultrastruct Pathol 35(4):150-154 (2001); Pretorius et al., Blood Coagul Fibrinolysis 22(8):696-700 (2011)). […] From each sample, 50 fibers were measured.

normal pooled plasma [2] = experiment: Effect of FeCl3 and deferoxamine chelation on reaction time (R), thrombelastograph; type: biochemical, human; conditions: FeCl3 10 μM; for reaction time: median (1st, 3rd quartile)
Protocol: Thrombelastograph-Based Analyses. All thrombelastograph-based experiments were performed at the University of Arizona. Frozen, citrate anticoagulated normal pooled plasma was obtained from a commercial vendor (George King Bio-Medical, Overland Park, Kans., USA) for use in subsequently described experimentation. […] Deferoxamine was obtained from a commercial vendor (Cayman Chemical Company, Ann Arbor, Mich., USA). […] Then, 336 μl of either plasma mixture was placed in a disposable cup in a computer-controlled thrombelastograph® hemostasis system (Model 5000, Haemoscope Corp., Niles, Ill., USA). […] Thus, there were four conditions: no deferoxamine, no FeCl3, (Control), deferoxamine, no FeCl3 (deferoxamine); no deferoxamine, FeCl3 (FeCl3); and finally, FeCl3 followed by deferoxamine (FeCl3+Deferoxamine). There were six replicates per condition. Thereafter, 20 μl of 200 mM CaCl2 was added as the last step to initiate clotting. Data were collected at 37° C. until R was recorded. […] There were six replicates per condition. An aliquot of 340 μl of each of the four conditions was placed into thrombelastographic cups and 20 μl of 200 mM CaCl2 was added to initiate clotting. Data were collected at 37° C. until R was recorded. As R values varied between experiments, and a fixed number of channels were available (n=4), plasma was incubated at room temperature between 45-60 min prior to initiation of coagulation. The third series of experiments was designed to decrease incubation time by increasing temperature and deferoxamine concentration without compromising the ability to detect iron-mediated changes in R values. […] The mixtures were mixed with the disposable pin, and allowed to incubate for 15 min at 37° C. Clotting was initiated by addition of 20 μl of 200 mM CaCl2 and data collected at 37° C. until R was recorded. A total of six replicates of the four experimental conditions were analyzed.

normal pooled plasma [3] = experiment: Concentration-response of FeCl3 on reaction time (R), ROTEM delta thromboelastometry; type: biochemical, human; conditions: 2-10 μM FeCl3
Protocol: First, a concentration-response relationship of iron concentration and reaction time (R, defined as 2 mm clot strength; this is also known as clotting time in thromboelastometric analyses) was determined. The rationale for using R time was that it is the first indication of the onset of coagulation, is used in both thrombelastographic and thromboelastometric systems, and was anticipated to quickly and easily detect iron-mediated enhancement of coagulation based on previous work. This concentration-response relationship was generated with a ROTEM® delta hemostasis system (Tem Innovations GmbH, Munich, Germany) generously provided by the manufacturer. All disposable cups/pins and reagents were also provided by Tem Innovations. Plasma was rapidly thawed at 37° C. on the day of experimentation. […] After 3 min or more of incubation at room temperature, 320 μl of these iron-exposed plasmas were subsequently placed in a disposable cup, with subsequent addition of 20 μl of 200 mM CaCl2. The complete sample was mixed by pipette once, and the reaction commenced at 37° C. The R values were subsequently recorded.

Row | Structure (SMILES) | normal individual increase in TTG secondary to CORM-2 exposure (normal individual plasma) | decrease in average fibrin fiber width vs normal subjects (105±3 nm) [1] | FeCl3-mediated decrease in R values (normal pooled plasma [2]; 45-60 minute incubation) | reduction in R values compared to control plasma values (normal pooled plasma [2]; 3 min incubation series) | reaction time (normal pooled plasma [2]; Fifteen min incubation at 37° C., deferoxamine 2.78 mM) | reaction time (normal pooled plasma [2]; Forty-five to sixty min incubation at room temperature, deferoxamine 1 mM) | reaction time (normal pooled plasma [2]; Three min incubation at room temperature, deferoxamine 1 mM) | R values vs plasma without FeCl3 addition (normal pooled plasma [3])
1 | [C-]#[O+].[C-]#[O+].[C-]#[O+].[C-]#[O+].[C-]#[O+].[C-]#[O+].[Cl][Ru][Cl].[Cl][Ru][Cl] [CORM-2, tricarbonyldichlororuthenium (II) dimer] | 89% | 43% |  |  |  |  |  | 
2 | [Cl][Fe]([Cl])[Cl] [FeCl3, ferric chloride] |  | 58% | 72% | 54% | 4.6 (4.4, 6.0)*† min | 5.0 (4.9, 5.1)*† min | 5.9 (5.8, 6.4)*† min | significantly smaller

— US10012659B2, “Methods for diagnosing iron-related pathologies” (priority 2014, dated 2018)
